{
  "source": "ChEMBL document CHEMBL1201862",
  "about": "“PubChem BioAssay data set” (2004)",
  "key": {"[1]": {"assay": "growth inhibition of yeast DHODH-expressing 3D7 parasites – SYBR Green, dry powder samples, dose response (AID 1159570);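 note: parasite growth measured after 72 hours of compound exposure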", "format": "functional, cell-based"}, "[2]": {"assay": "toxicity to human HepG2 hepatoma cells – cell-based, plate reader, dry powder samples, cytotoxicity control, dose response (AID 1159569);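 note: inhibitor potency with signal falling toward the positive control level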", "format": "functional"}, "[3]": {"assay": "P. falciparum Dd2 growth inhibitors, dose response, SYBR Green, cherry-picked samples (AID 1159567)", "format": "functional, cell-based"}, "[4]": {"assay": "Dd2 malaria parasite growth inhibition potency – SYBR Green, dry powder samples, dose response (AID 1159566);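 note: potency for growth inhibition with lower SYBR green DNA signal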", "format": "functional, cell-based"}, "[5]": {"assay": "growth inhibition of PfATP4-mutant resistant parasites – NITD609-resistant line, SYBR Green, dry powder, dose response (AID 1159571);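 note: parasites synchronized at ring stage by sorbitol before testing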", "format": "functional, cell-based"}, "[6]": {"molecular_target": "NAD-dependent protein deacylase sirtuin-5, mitochondrial (Homo sapiens, UniProt Q9NXA8)", "assay": "sirtuin-5 deacylation blockers, concentration series – biochemical, fluorescence imaging, cherry-pick, set 5, dose response (AID 720591);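 note: desuccinylation of succinyl peptide AMC substrate read as fluorescence after trypsin release; potency of inhibitors that lower fluorescence and may act on trypsin instead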"}, "[7]": {"molecular_target": "Voltage-gated inwardly rectifying potassium channel KCNH2 (Homo sapiens, UniProt Q12809)", "assay": "concentration-dependent hERG rescue from blockers – cell-based, thallium flux, dose response (AID 2121)", "format": "ADME"}, "Prothrombin": {"molecular_target": "Prothrombin (Homo sapiens, UniProt P00734)", "assay": "Thrombin 1536 HTS Dose Response Confirmation. [Related pubchem assays: 1046 (Thrombin 1536 HTS; hits were confirmed in this assay)]", "format": "functional"}, "[8]": {"assay": "blockers of CRF-binding protein–CRF-R2 complex – cell-based, uHTS hits, 384-well, dose response (AID 651639)", "format": "functional, Homo sapiens", "details": "read-out: IC50_Mean"}, "[9]": {"molecular_target": "T1, Corticotropin-releasing factor receptor 2/Corticotropin-releasing factor-binding protein (Homo sapiens, UniProt P24387+Q13324)", "T1 sequence (Q13324 whole entry)": "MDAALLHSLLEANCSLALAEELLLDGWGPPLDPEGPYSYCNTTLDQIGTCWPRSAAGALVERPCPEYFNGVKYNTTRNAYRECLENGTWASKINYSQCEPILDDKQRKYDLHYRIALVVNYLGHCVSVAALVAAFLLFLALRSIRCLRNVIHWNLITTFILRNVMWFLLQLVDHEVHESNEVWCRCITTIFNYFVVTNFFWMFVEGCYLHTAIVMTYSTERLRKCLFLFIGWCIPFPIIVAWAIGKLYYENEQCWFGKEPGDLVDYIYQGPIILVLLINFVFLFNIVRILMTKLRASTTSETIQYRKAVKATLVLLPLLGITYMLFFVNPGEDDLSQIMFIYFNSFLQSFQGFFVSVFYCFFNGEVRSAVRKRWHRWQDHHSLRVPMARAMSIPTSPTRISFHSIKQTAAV", "T1 sequence (P24387 whole entry)": "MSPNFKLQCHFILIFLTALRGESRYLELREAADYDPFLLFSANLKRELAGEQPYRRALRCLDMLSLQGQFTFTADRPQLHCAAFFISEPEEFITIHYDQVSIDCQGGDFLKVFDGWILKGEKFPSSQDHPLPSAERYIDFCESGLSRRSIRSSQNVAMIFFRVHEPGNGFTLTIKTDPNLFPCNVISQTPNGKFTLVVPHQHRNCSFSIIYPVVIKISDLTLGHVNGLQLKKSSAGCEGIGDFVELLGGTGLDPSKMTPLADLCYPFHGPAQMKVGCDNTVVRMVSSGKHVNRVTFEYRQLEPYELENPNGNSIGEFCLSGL", "assay": "activators of CRF receptor 2 with binding protein – uHTS hits, confirmation (AID 602473)", "format": "functional", "details": "read-out: EC50_Mean"}, "[10]": {"molecular_target": "T1, Corticotropin-releasing factor receptor 2/Corticotropin-releasing factor-binding protein", "assay": "Dose Response confirmation of uHTS hits for small molecule antagonists of the CRF-binding protein and CRF-R2 receptor complex.", "format": "functional", "details": "read-out: IC50_Mean"}, "Major prion protein": {"molecular_target": "Major prion protein (Homo sapiens, UniProt P04156)", "format": "functional, cell-based"}, "[11]": {"assay": "HEK-293T viability loss after treatment – luminescence, T-cell screen hits, cytotoxicity control for TCR NF-kB inhibitor project, dose response (AID 489026);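 note: cells exposed to compound about 14 hours before the viability readout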", "format": "functional, cell-based"}, "[12]": {"assay": "Luminescence-based cell-based high throughput dose response assay to identify activators of the DAF-12 from the parasite S. stercoralis (ssDAF-12).", "format": "functional"}},
  "note": "Active and inactive are the calls of the source.",
  "data": [
    {"molecule": "C[C@@H]1CN([C@H](C)CO)C(=O)c2ccccc2-c2ccccc2CO[C@H]1CN(C)C(=O)Nc1cccc(Cl)c1Cl", "values": [
      {"measurement": "AC50", "setting": "[1]", "result": "0.466 µM (active)"},
      {"measurement": "AC50", "setting": "[2]", "result": "> 100 µM (inactive)"},
      {"measurement": "AC50", "setting": "[3]", "result": "1.01 µM (active)"},
      {"measurement": "AC50", "setting": "[4]", "result": "0.56 µM (active)"},
      {"measurement": "AC50", "setting": "[5]", "result": "1.65 µM (active)"}
    ]},
    {"molecule": "Cc1cc(C2C(=O)c3ccccc3C2=O)c(C)c(C)c1C", "values": [
      {"measurement": "AC50", "setting": "[6]", "result": "> 30 µM (inactive)"}
    ]},
    {"molecule": "O=C1N2CCSC2=NC1(NS(=O)(=O)c1ccccc1)C(F)(F)F", "note": "(centres undefined)", "values": [
      {"measurement": "EC50", "setting": "[7]", "result": "2.27 µM (active)"}
    ]},
    {"molecule": "COc1ccc(NC(=O)N2CCCCN3[C@H](CO)[C@H](c4ccc(C#CCC(C)C)cc4)[C@@H]3C2)cc1", "values": [
      {"measurement": "AC50", "setting": "[1]", "result": "0.209 µM (active)"},
      {"measurement": "AC50", "setting": "[2]", "result": "> 100 µM (inactive)"},
      {"measurement": "AC50", "setting": "[3]", "result": "0.636 µM (active)"},
      {"measurement": "AC50", "setting": "[4]", "result": "0.418 µM (active)"},
      {"measurement": "AC50", "setting": "[5]", "result": "0.264 µM (active)"}
    ]},
    {"molecule": "CCOC(=O)N1CCN(C(=O)C2CCCN(S(=O)(=O)c3cc(C)ccc3OC)C2)CC1", "note": "(centres undefined)", "values": [
      {"measurement": "IC50", "setting": "Prothrombin", "result": "> 50 µM (not active)"}
    ]},
    {"molecule": "CCc1nnc(NC(=O)CCC(=O)N2CCCC2)s1", "values": [
      {"measurement": "IC50", "setting": "Prothrombin", "result": "> 50 µM (not active)"}
    ]},
    {"molecule": "CC(C)c1cc(C(F)(F)F)nc(NNc2nc(C(C)C)cc(C(F)(F)F)n2)n1", "values": [
      {"measurement": "IC50", "setting": "[8]", "result": "> 20 µM (inactive)"},
      {"measurement": "EC50", "setting": "[9]", "result": "> 53 µM (inactive)"},
      {"measurement": "IC50", "setting": "[10]", "result": "0.988 µM (active)"}
    ]},
    {"molecule": "COc1ccc(NC(=O)c2c(F)cccc2F)cc1S(=O)(=O)Nc1ccc(Br)cc1", "values": [
      {"measurement": "IC50", "setting": "[8]", "result": "18.9 µM (active)"},
      {"measurement": "EC50", "setting": "[9]", "result": "> 53 µM (inactive)"},
      {"measurement": "IC50", "setting": "[10]", "result": "20 µM (active)"}
    ]},
    {"molecule": "Cc1cccc(NC(=S)NC(=O)c2cc(-c3ccccc3)nc3ccccc23)c1", "values": [
      {"measurement": "EC50", "setting": "[7]", "result": "0.53 µM (active)"}
    ]},
    {"molecule": "COc1cc(C(=O)Nc2ccc3c(c2)ncn3C)cc(OC)c1OC", "values": [
      {"measurement": "IC50", "setting": "Major prion protein", "result": "6.23 µM (active)"},
      {"measurement": "IC50", "setting": "cells", "result": "> 138 µM (inactive)"},
      {"measurement": "IC50", "setting": "[11]", "result": "> 80 µM (inactive)"}
    ]},
    {"molecule": "CC(C)Sc1snnc1-c1ccccc1", "values": [
      {"measurement": "IC50", "setting": "[8]", "result": "> 20 µM (inactive)"},
      {"measurement": "EC50", "setting": "[9]", "result": "> 53 µM (inactive)"},
      {"measurement": "IC50", "setting": "[10]", "result": "< 0.368 µM (active)"}
    ]},
    {"molecule": "Cc1cc2oc(C(=O)NCC(c3ccco3)N3CCCC3)c(C)c2cc1C", "note": "(centres undefined)", "values": [
      {"measurement": "IC50", "setting": "[12]", "result": "> 67.6 µM (inactive)"}
    ]},
    {"molecule": "O=C(NCc1ccccc1)C1=C[C@@H](c2coc3ccccc3c2=O)C[C@@H](OCCCCO)O1", "values": [
      {"measurement": "IC50", "setting": "Prothrombin", "result": "> 50 µM (not active)"}
    ]}
  ]
}
